Assay: Example 3: phase 3 trial, enavogliflozin 0.3 mg vs dapagliflozin 10 mg once a day for 24 weeks added to metformin and gemigliptin in patients with type 2 diabetes (same endpoints, rescue drug)
Assay type: in vivo, human
Method: 1) when Metformin (≥1,000 mg/Day) was Administered at a Constant Dose for at Least 8 Weeks Prior to Pre-Visit (Pre-Screening) • Metformin (≥1,000 mg/day) and gemigliptin (50 mg/day) were co-administered during the 8-week stabilization period. […] 4) when Metformin (≥1,000 mg/Day) and Gemigliptin (50 mg/Day) were Co-Administered at Constant Doses for at Least 8 Weeks Prior to Pre-Visit (Prescreening) • Without a separate stabilization period, Pre-visit (pre-screening) was Visit 1 (screening).
Subjects who met the inclusion/exclusion criteria continued to receive metformin and gemigliptin while receiving a placebo of the clinical trial drug in a single-blind (subject-blinded) state for a 2-week run-in period.
Here, the randomized subjects were stratified according to the administration therapy (co-administration with two or less agents (one or two agents) or three or more agents) of a conventional hypoglycemic agent (before washout of another hypoglycemic agent) within 24 weeks prior to obtaining written informed consent and by an HbA1c value (<8% or ≥8%) at Visit 1 (screening) measured in the central laboratory.
The randomized subjects were administered two tablets of the clinical trial drug corresponding to each administration group once a day, and then visited the institution at weeks 6, 12, 18, and 24 during the 24-week administration period to conduct efficacy and safety assessments. In addition, during the clinical trial period, they were instructed to exercise regularly and control their diet without changing their daily life patterns.
• 1) Change in HbA1c at week 24 after administration of clinical trial drug compared to Visit 2 (randomization)
• 1) Change in HbA1c at each time point of weeks 6, 12, and 18 after administration of clinical trial drug compared to Visit 2 (randomization) • 2) Change in FPG at each time point of weeks 6, 12, 18, and 24 after administration of clinical trial drug compared to Visit 2 (randomization) • 3) Proportion of subjects achieving HbA1c<7% at each time point of weeks 6, 12, 18, and 24 after administration of clinical trial drug • 4) Proportion of subjects achieving HbA1c<6.5% at each time point of weeks 6, 12, 18, and 24 after administration of clinical trial drug • 5) Proportion of subjects achieving therapeutic response (HbA1c change (HbA1c at Visit 2—HbA1c at each evaluation time point)>0.5% or HbA1c<7% at each evaluation time point compared to Visit 2 (randomization)) at each time point of weeks 6, 12, 18, and 24 after administration of clinical trial drug • 6) Proportion of subjects achieving therapeutic response (HbA1c change (HbA1c at Visit 2—HbA1c at each evaluation time point)>0.7% or HbA1c<7% at each evaluation time point compared to Visit 2 (randomization)) at each time point of weeks 6, 12, 18, and 24 after administration of clinical trial drug • 7) Proportion of subjects achieving therapeutic response (HbA1c change (HbA1c at Visit 2—HbA1c at each evaluation time point)>1% or HbA1c<7% at each evaluation time point compared to Visit 2 (randomization)) at each time point of weeks 6, 12, 18, and 24 after administration of clinical trial drug

[1] = week 6, per-protocol set, enavogliflozin 0.3 mg, dapagliflozin 10 mg
[2] = week 12, modified per-protocol set 1, enavogliflozin 0.3 mg vs dapagliflozin 10 mg
[3] = week 12, modified per-protocol set 1, enavogliflozin 0.3 mg, dapagliflozin 10 mg
[4] = week 12, modified per-protocol set 2

OC[C@H]1O[C@@H](c2cc(Cc3ccc(C4CC4)cc3)c(Cl)c3c2CCO3)[C@H](O)[C@@H](O)[C@@H]1O [Enavogliflozin, (2S,3R,4R,5S,6R)-2-(7-chloro-6 (4-cyclopropylbenzyl)-2,3-dihydrobenzofuran-4-yl)-6-(hydroxymethyl)tetrahydro-2H-pyran-3,4,5-triol]
Fasting C-peptide, Mean [1]: 0.67 ng/mL
Fasting C-peptide, Median [1]: 0.63 ng/mL
HbA1c, Mean [1]: 7.06%
HbA1c, Median [1]: 6.94%
Subjects achieving HbA1c target of <6.5%, (%) [1]: 11.21%
Subjects achieving HbA1c target of <7%, % [1]: 56.03%
body weight, Median [1]: 66.80 kg
Subjects achieving therapeutic glycemic response 1, % (week 6, per-protocol set, response 1 = HbA1c change >0.5% or HbA1c <7%, enavogliflozin 0.3 mg, dapagliflozin 10 mg): 87.07%
Subjects achieving therapeutic glycemic response 2, % (week 6, per-protocol set, response 2 = HbA1c change >0.7% or HbA1c <7%, enavogliflozin 0.3 mg, dapagliflozin 10 mg): 78.45%
Subjects achieving therapeutic glycemic response 3, % (week 6, per-protocol set, response 3 = HbA1c change >1% or HbA1c <7%, enavogliflozin 0.3 mg, dapagliflozin 10 mg): 70.69%
FPG change from baseline, LS mean (SE) (week 12): −27.17(1.54) mg/dL
HDL-C change from baseline, LS mean (SE) (week 12): 3.18(0.62) mg/dL
HOMA-β change from baseline, LS mean (SE) (week 12): 7.78(1.94)
HbA1c change from baseline, LS mean (SE) (week 12): −0.87(0.04) % p
LDL-C change from baseline, LS mean (SE) (week 12): 2.95(1.79) mg/dL
UACR change from baseline, LS mean (SE) (week 12): −15.12(4.60) g/kg
UGCR change from baseline, LS mean (SE) (week 12): 58.21(2.07) mg/mg
adiponectin change from baseline, LS mean (SE) (week 12): 0.89(0.34) μg/mL
body weight change from baseline, LS mean (SE) (week 12): −2.72(0.20) kg
diastolic blood pressure change from baseline, LS mean (SE) (week 12): −4.30(0.69) mmHg
fasting C-peptide change from baseline, LS mean (SE) (week 12): −0.09(0.02) ng/ml
leptin change from baseline, LS mean (SE) (week 12): −1.97(0.48) ng/ml
systolic blood pressure change from baseline, LS mean (SE) (week 12): −6.43(0.88) mmHg
total cholesterol change from baseline, LS mean (SE) (week 12): 6.80(2.04) mg/dL
triglyceride change from baseline, LS mean (SE) (week 12): −3.23(5.25) mg/dL
FPG change from baseline, LS mean difference (week 12, vs dapagliflozin): -2.75 mg/dL
HDL-C change from baseline, LS mean difference (week 12, vs dapagliflozin): 0.34 mg/dL
HOMA-IR change from baseline, LS mean difference (week 12, vs dapagliflozin): −0.06
HOMA-β change from baseline, LS mean difference (week 12, vs dapagliflozin): 2.55
HbA1c change from baseline, LS mean difference (week 12, vs dapagliflozin): −0.04 % p
LDL-C change from baseline, LS mean difference (week 12, vs dapagliflozin): 0.24 mg/dL
Odds ratio for achieving HbA1c<6.5% (week 12, vs dapagliflozin): 1.44
Odds ratio for achieving HbA1c<7% (week 12, vs dapagliflozin): 1.20
Odds ratio, therapeutic response (HbA1c change >0.5% or HbA1c<7%) (week 12, vs dapagliflozin): 1.09
Odds ratio, therapeutic response (HbA1c change >0.7% or HbA1c<7%) (week 12, vs dapagliflozin): 1.30
Odds ratio, therapeutic response (HbA1c change >1% or HbA1c<7%) (week 12, vs dapagliflozin): 1.31
UACR change from baseline, LS mean difference (week 12, vs dapagliflozin): -3.35 g/kg
UGCR change from baseline, LS mean difference (week 12, vs dapagliflozin): 13.37 mg/mg
adiponectin change from baseline, LS mean difference (week 12, vs dapagliflozin): 0.19 µg/mL
body weight change from baseline, LS mean difference (week 12, vs dapagliflozin): -0.01 kg
diastolic blood pressure change from baseline, LS mean difference (week 12, vs dapagliflozin): −2.04 mmHg
fasting C-peptide change from baseline, LS mean difference (week 12, vs dapagliflozin): -0.02 ng/mL
leptin change from baseline, LS mean difference (week 12, vs dapagliflozin): -0.28 ng/mL
systolic blood pressure change from baseline, LS mean difference (week 12, vs dapagliflozin): −1.37 mmHg
total cholesterol change from baseline, LS mean difference (week 12, vs dapagliflozin): 1.40 mg/dL
triglyceride change from baseline, LS mean difference (week 12, vs dapagliflozin): 8.79 mg/dL
Change from baseline in HDL-C, ANCOVA LS mean difference [2]: 0.34 mg/dL
Change from baseline in LDL-C, ANCOVA LS mean difference [2]: 0.24 mg/dL
Change from baseline in total cholesterol, ANCOVA LS mean difference [2]: 1.40 mg/dL
Change from baseline in triglycerides, ANCOVA LS mean difference [2]: 8.79 mg/dL
Change from baseline in HDL-C, ANCOVA LS mean [3]: 3.18 mg/dL
Change from baseline in HDL-C, Mean [3]: 3.17 mg/dL
Change from baseline in HDL-C, Median [3]: 3.00 mg/dL
Change from baseline in LDL-C, ANCOVA LS mean [3]: 2.95 mg/dL
Change from baseline in LDL-C, Mean [3]: 3.76 mg/dL
Change from baseline in LDL-C, Median [3]: 3.00 mg/dL
Change from baseline in total cholesterol, ANCOVA LS mean [3]: 6.80 mg/dL
Change from baseline in total cholesterol, Mean [3]: 7.79 mg/dL
Change from baseline in total cholesterol, Median [3]: 7.00 mg/dL
Change from baseline in triglycerides, ANCOVA LS mean [3]: -3.23 mg/dL
Change from baseline in triglycerides, Mean [3]: 0.59 mg/dL
Change from baseline in triglycerides, Median [3]: -3.00 mg/dL
Fasting HDL-C, Mean [3]: 49.21 mg/dL
Fasting HDL-C, Median [3]: 47.50 mg/dL
Fasting LDL-C, Mean [3]: 75.11 mg/dL
Fasting LDL-C, Median [3]: 72.00 mg/dL
Fasting total cholesterol, Mean [3]: 142.09 mg/dL
Fasting triglycerides, Mean [3]: 118.98 mg/dL
Fasting triglycerides, Median [3]: 98.50 mg/dL
fasting Total cholesterol, Median [3]: 136.00 mg/dL
Change from baseline in diastolic blood pressure, ANCOVA LS mean [4]: −4.30 mmHg
Change from baseline in diastolic blood pressure, LS mean difference (enavogliflozin − dapagliflozin) [4]: −2.04 mmHg

Reference: patent publication US20260130933A1, “PHARMACEUTICAL COMPOSITION FOR PREVENTION OR TREATMENT OF NEPHROPATHY AND/OR DIABETES MELLITUS, COMPRISING ENAVOGLIFLOZIN” (DAEWOONG PHARMACEUTICAL CO., LTD., priority 2022, published 2026)
